Data reported in ChEMBL document CHEMBL1140195, “Synthesis, screening for antitubercular activity and 3D-QSAR studies of substituted N-phenyl-6-methyl-2-oxo-4-phenyl-1,2,3,4-tetrahydro-pyrimidine-5-carboxamides” (2008).
Values after ≈ are worked out from the molar mass of the structure shown.

How the values were obtained:
Assay type in all cases: functional
[1] = test system: Mycobacterium tuberculosis; test: Antitubercular activity against Mycobacterium tuberculosis H37Rv at 6.25 ug/mL relative to control
[2] = test system: Mycobacterium tuberculosis; test: Antitubercular activity against Mycobacterium tuberculosis H37Rv
[3] = test system: Mycobacterium tuberculosis; test: Antitubercular activity against Mycobacterium tuberculosis

Compound | inhibition at 6.25 µg/mL [1] [%] | MIC [2] [µg/mL] | MIC [3] [µg/mL]
CC1=C(C(=O)Nc2ccc(F)cc2)C(c2cccc([N+](=O)[O-])c2)NC(=O)N1 (centres undefined) | 30 | > 6.25 | 
CCCc1cc(=O)oc2c3c(c4c(c12)OC(C)(C)C=C4)O[C@H](C)[C@@H](C)[C@@H]3O [CALANOLIDE A] |  |  | 3.13 (≈ 8.45 µM)
CC1=C(C(=O)Nc2ccc(F)c(Cl)c2)C(c2cccc([N+](=O)[O-])c2)NC(=O)N1 (centres undefined) | 29 | > 6.25 | 
CC1=C(C(=O)Nc2cc(Cl)ccc2Cl)C(c2ccc([N+](=O)[O-])cc2)NC(=O)N1 (centres undefined) | 18 | > 6.25 | 
CC1=C(C(=O)Nc2ccc(F)cc2)C(c2cccc(Cl)c2)NC(=O)N1 (centres undefined) | 38 | > 6.25 | 
CC1=C(C(=O)Nc2ccc(C)c(C)c2)C(c2cccc([N+](=O)[O-])c2)NC(=O)N1 (centres undefined) | 63 | > 6.25 | 
CC1=C(C(=O)Nc2ccc(C)cc2C)C(c2ccc(O)cc2)NC(=O)N1 (centres undefined) | 12 | > 6.25 | 
COc1ccc(NC(=O)C2=C(C)NC(=O)NC2c2ccc([N+](=O)[O-])cc2)cc1 (centres undefined) | 21 | > 6.25 | 
CC1=C(C(=O)Nc2ccc(C)cc2C)C(c2ccc([N+](=O)[O-])cc2)NC(=O)N1 (centres undefined) | 12 | > 6.25 | 
CC1=C(C(=O)Nc2cccc(C)c2C)C(c2cccc(Oc3ccccc3)c2)NC(=O)N1 (centres undefined) | 65 | > 6.25 | 
CC1=C(C(=O)Nc2ccc(F)c(Cl)c2)C(c2ccc([N+](=O)[O-])cc2)NC(=O)N1 (centres undefined) | 22 | > 6.25 | 
CC1=C(C(=O)Nc2ccccc2Cl)C(c2ccccc2[N+](=O)[O-])NC(=O)N1 (centres undefined) | 11 | > 6.25 | 
CC1=C(C(=O)Nc2ccccc2Cl)C(c2cccc([N+](=O)[O-])c2)NC(=O)N1 (centres undefined) | 26 | > 6.25 | 
CC1=C(C(=O)Nc2cc(C)ccc2C)C(c2ccc(Cl)cc2)NC(=O)N1 (centres undefined) | 6 | > 6.25 | 
CC1=C(C(=O)Nc2ccc(Cl)cc2)C(c2cccc([N+](=O)[O-])c2)NC(=O)N1 (centres undefined) | 29 | > 6.25 | 
CC1=C(C(=O)Nc2cc(C)ccc2C)C(c2cccc(Oc3ccccc3)c2)NC(=O)N1 (centres undefined) | 27 | > 6.25 | 
CC1=C(C(=O)Nc2ccccc2F)C(c2ccc(O)cc2)NC(=O)N1 (centres undefined) | 18 | > 6.25 | 
CC1=C(C(=O)Nc2ccc(F)c(Cl)c2)C(c2cccc(Cl)c2)NC(=O)N1 (centres undefined) | 48 | > 6.25 | 
CC1=C(C(=O)Nc2ccc(C)cc2)C(c2cccc([N+](=O)[O-])c2)NC(=O)N1 (centres undefined) | 28 | > 6.25 | 
COc1ccc(C2NC(=O)NC(C)=C2C(=O)Nc2cc(C)ccc2C)cc1 (centres undefined) | 2 | > 6.25 | 
CC1=C(C(=O)Nc2ccccc2C)C(c2cccc([N+](=O)[O-])c2)NC(=O)N1 (centres undefined) | 6 | > 6.25 | 
CC1=C(C(=O)Nc2ccccc2)C(c2ccc([N+](=O)[O-])cc2)NC(=O)N1 (centres undefined) | 25 | > 6.25 | 
CC1=C(C(=O)Nc2ccccc2F)C(c2ccc([N+](=O)[O-])cc2)NC(=O)N1 (centres undefined) | 4 | > 6.25 | 
CC1=C(C(=O)Nc2ccccc2Cl)C(c2ccc(Cl)cc2)NC(=O)N1 (centres undefined) | 26 | > 6.25 | 
CC1=C(C(=O)Nc2ccc(C)c(C)c2)C(c2cccc(Oc3ccccc3)c2)NC(=O)N1 (centres undefined) | 32 | > 6.25 | 
CC1=C(C(=O)Nc2cc(C)ccc2C)C(c2ccc([N+](=O)[O-])cc2)NC(=O)N1 (centres undefined) | 4 | > 6.25 | 
CC1=C(C(=O)Nc2cccc([N+](=O)[O-])c2)C(c2ccc(O)cc2)NC(=O)N1 (centres undefined) | 2 | > 6.25 | 
CC1=C(C(=O)Nc2ccc(C)c(C)c2)C(c2ccc([N+](=O)[O-])cc2)NC(=O)N1 (centres undefined) | 13 | > 6.25 | 
CC1=C(C(=O)Nc2ccc(Cl)cc2)C(c2ccc([N+](=O)[O-])cc2)NC(=O)N1 (centres undefined) | 9 | > 6.25 | 
CC1=C(C(=O)Nc2ccccc2F)C(c2cccc([N+](=O)[O-])c2)NC(=O)N1 (centres undefined) | 24 | > 6.25 | 
